What all share (type): functional, cell-based
The subject of one assay is A549. Briefly: Cytotoxicity against human A549 cells.
The subject of the next assay is HL-60. The assay is described as follows: Cytotoxicity against human HL-60 cells.
The test system of a further assay is AGS. Briefly: Cytotoxicity against human AGS cells.
A further assay deals with HepG2. The assay is described as follows: Cytotoxicity against human HepG2 cells.

Molecules are shown by their SMILES. In brackets after ≈: the same amount, converted by molar mass.

The IC50 is the concentration needed to halve the response being measured. A low value points to higher potency. `C/C1=C\CC(C)(C)/C=C/C(=O)N/C(C)=C/CC1`: the IC50 came out at 56.9 µg/mL (≈ 244 µM) in the assay on A549, 9.84 µg/mL (≈ 42.2 µM) with HL-60, 39.6 µg/mL (≈ 170 µM) in the assay on AGS and 27.4 µg/mL (≈ 117 µM) with HepG2.

For the compound `C\C1=C/CC/C(C=O)=C/CC(C)(C)/C=C/C1=N/O`, the IC50 in the assay with A549 was found to be 91.8 µg/mL (≈ 371 µM); in the assay on HL-60, 37.7 µg/mL (≈ 152 µM); in the assay on AGS, 53.9 µg/mL (≈ 218 µM); in the assay with HepG2, 64.1 µg/mL (≈ 259 µM).

In the case of `C#CCN[C@@H]1CC/C(C)=C/CC(C)(C)/C=C/C(=O)[C@@H]1C`, the IC50 was found to be 32.2 µg/mL (≈ 118 µM) in the assay with A549, 9.59 µg/mL (≈ 35.1 µM) in the assay with HL-60, 11.5 µg/mL (≈ 42 µM) with AGS and 6.52 µg/mL (≈ 23.8 µM) with HepG2.

`COc1ccc(C(=O)O/N=C2/C=C/C(C)(C)C/C=C(\C)CC/C=C/2C)cc1`: the IC50 is 1.52 µg/mL (≈ 4.14 µM) with A549, 1.43 µg/mL (≈ 3.89 µM) in the assay on HL-60, 1.93 µg/mL (≈ 5.25 µM) in the assay with AGS and 1.42 µg/mL (≈ 3.86 µM) in the assay on HepG2.

For the compound `CC(=O)O/N=C1/C=C/C(C)(C)C/C=C(\C)CC/C=C/1C`, the IC50 was 30.8 µg/mL (≈ 112 µM) with A549, 11 µg/mL (≈ 39.9 µM) with HL-60, 23.8 µg/mL (≈ 86.3 µM) with AGS and 18.5 µg/mL (≈ 67.3 µM) in the assay on HepG2.

Take `C/C1=C\CC(C)(C)/C=C/C(=N/OC(=O)c2ccc(Br)cc2)C(/C)=C/CC1`: the IC50 with A549 came to 40.8 µg/mL (≈ 97.9 µM); in the assay on HL-60, 15.4 µg/mL (≈ 36.9 µM); in the assay with AGS, 27.3 µg/mL (≈ 65.6 µM); in the assay with HepG2, 12.2 µg/mL (≈ 29.4 µM).

`C/C1=C\CC(C)(C)/C=C/C(=N/OC(=O)[C@H](NC(=O)OC(C)(C)C)C(C)C)C(/C)=C/CC1`: the IC50 in the assay on A549 worked out at 2.01 µg/mL (≈ 4.65 µM); with HL-60 it was 3.88 µg/mL (≈ 8.97 µM); in the assay with AGS it was 3.21 µg/mL (≈ 7.42 µM); in the assay with HepG2, 1.59 µg/mL (≈ 3.68 µM).

Turning to `C/C1=C\CC(C)(C)/C=C/C(=N/OC(=O)c2ccccc2)C(/C)=C/CC1`, the IC50 is 14.3 µg/mL (≈ 42.3 µM) in the assay on A549, 6.63 µg/mL (≈ 19.6 µM) in the assay with HL-60, 10.5 µg/mL (≈ 31.3 µM) in the assay on AGS and 3.64 µg/mL (≈ 10.8 µM) in the assay on HepG2.

`COc1cc(C(=O)O/N=C2/C=C/C(C)(C)C/C=C(\C)CC/C=C/2C)ccc1OC(C)=O`: the IC50 with A549 was 15.6 µg/mL (≈ 36.8 µM); in the assay on HL-60, 10.7 µg/mL (≈ 25.2 µM); with AGS, 10 µg/mL (≈ 23.5 µM); in the assay on HepG2, 7.41 µg/mL (≈ 17.4 µM).

As for `C/C1=C\CC(C)(C)/C=C/C(=N/OC(=O)c2cccc([N+](=O)[O-])c2)C(/C)=C/CC1`, the half-maximal inhibitory concentration (IC50) worked out at 58.9 µg/mL (≈ 154 µM) in the assay on A549, 29.8 µg/mL (≈ 77.8 µM) in the assay on HL-60, 41.8 µg/mL (≈ 109 µM) in the assay on AGS and 30.4 µg/mL (≈ 79.5 µM) in the assay on HepG2.

In the case of `C/C1=C\CC(C)(C)/C=C/C(=N/OC(=O)c2cccc(Cl)c2)C(/C)=C/CC1`, the IC50 in the assay on A549 is 52.9 µg/mL (≈ 142 µM); in the assay with HL-60, 10.6 µg/mL (≈ 28.5 µM); in the assay on AGS it was 38.3 µg/mL (≈ 103 µM); in the assay with HepG2, 14.3 µg/mL (≈ 38.4 µM).

As to `CC(=O)Oc1ccc(C(=O)O/N=C2/C=C/C(C)(C)C/C=C(\C)CC/C=C/2C)cc1`, the half-inhibitory concentration (IC50) came to 10.9 µg/mL (≈ 27.5 µM) with A549, 3.55 µg/mL (≈ 8.98 µM) in the assay on HL-60, 9.37 µg/mL (≈ 23.7 µM) in the assay with AGS and 5.87 µg/mL (≈ 14.8 µM) in the assay on HepG2.

For `CC(=O)N1C(=O)/C=C/C(C)(C)C/C=C(\C)CC/C=C/1C`, the half-inhibitory concentration (IC50) in the assay on A549 worked out at 44.1 µg/mL (≈ 160 µM); in the assay with HL-60, 4.5 µg/mL (≈ 16.3 µM); in the assay with AGS, 9.02 µg/mL (≈ 32.8 µM); with HepG2 it was 32.9 µg/mL (≈ 120 µM).

Regarding `C/C1=C\CC(C)(C)/C=C/C(=N/OC(=O)c2ccc([N+](=O)[O-])cc2)C(/C)=C/CC1`, the concentration for half-maximal inhibition (IC50) with A549 came to 9.28 µg/mL (≈ 24.3 µM); in the assay with HL-60, 9.88 µg/mL (≈ 25.8 µM); in the assay with AGS, 6.66 µg/mL (≈ 17.4 µM); in the assay with HepG2, 4.61 µg/mL (≈ 12.1 µM).

As for `C/C1=C\CC(C)(C)/C=C/C(=N/O)C(/C)=C/CC1`, the concentration for half-maximal inhibition (IC50) is above 100 µg/mL with A549, 45.5 µg/mL (≈ 195 µM) in the assay with HL-60, above 100 µg/mL with AGS and above 100 µg/mL in the assay on HepG2.

`C/C1=C\CC(C)(C)/C=C/C(=N/OC(=O)[C@H](NC(=O)OC(C)(C)C)C(C)(C)C)C(/C)=C/CC1`: the half-maximal inhibitory concentration (IC50) with A549 was determined as 1.37 µg/mL (≈ 3.07 µM); in the assay with HL-60 it was 0.41 µg/mL (≈ 0.918 µM); with AGS, 1.5 µg/mL (≈ 3.36 µM); in the assay on HepG2, 1.15 µg/mL (≈ 2.57 µM).

Take `C/C1=C\CC(C)(C)/C=C/C(=N/OC(=O)CCl)C(/C)=C/CC1`: the IC50 came out at 46.1 µg/mL (≈ 149 µM) in the assay with A549, 9.03 µg/mL (≈ 29.1 µM) in the assay on HL-60, 44.6 µg/mL (≈ 144 µM) in the assay with AGS and 37.5 µg/mL (≈ 121 µM) with HepG2.

With `C/C1=C\CC(C)(C)/C=C/C(=O)[C@H](C)[C@H](Nc2ccc(Cl)cc2)CC1`, the concentration for half-maximal inhibition (IC50) is above 100 µg/mL in the assay with A549, 53.7 µg/mL (≈ 155 µM) in the assay with HL-60, above 100 µg/mL with AGS and 56.2 µg/mL (≈ 163 µM) with HepG2.

In the case of `C/C1=C\CC(C)(C)/C=C/C(=N/OC(=O)c2ccccc2O)C(/C)=C/CC1`, the half-inhibitory concentration (IC50) came to 12 µg/mL (≈ 34 µM) in the assay with A549, 3.99 µg/mL (≈ 11.3 µM) in the assay with HL-60, 9.04 µg/mL (≈ 25.6 µM) in the assay with AGS and 4.2 µg/mL (≈ 11.9 µM) in the assay with HepG2.

On to `Cc1c2ccncc2c(C)c2c1[nH]c1ccccc12` [ELLIPTECINE], for which the half-inhibitory concentration (IC50) came out at 0.39 µg/mL (≈ 1.58 µM) with A549, 0.35 µg/mL (≈ 1.42 µM) in the assay on HL-60, 0.4 µg/mL (≈ 1.62 µM) with AGS and 0.33 µg/mL (≈ 1.34 µM) in the assay on HepG2.

Consider `C/C1=C\CC(C)(C)/C=C/C(=O)/C(C)=C/CC1` [ZERUMBONE], for which the 50% inhibitory concentration (IC50) in the assay on A549 turned out to be 1.03 µg/mL (≈ 4.72 µM); in the assay with HL-60, 0.86 µg/mL (≈ 3.94 µM); with AGS it was 1.11 µg/mL (≈ 5.08 µM); in the assay with HepG2, 0.93 µg/mL (≈ 4.26 µM).

Source of the values: ChEMBL document CHEMBL6109066, “Synthesis, cytotoxic evaluation, and molecular docking of novel zerumbone oxime esters and azazerumbone derivatives” (Bioorg Med Chem Lett, 2025).
